In US6566088B1, “Prolyl-4-hydroxylases” (Board of Regents, The University of Texas System, priority 2001, dated 2003):
Where a name gives a salt, the structure may show the parent alone. Read-outs that look alike come from different tables or passages of the source. Blank lines part the entries; values can stand above or below the molecule they belong to.

Columns and labels:
[1] = target: T1, HPH 2 (Homo sapiens, UniProt Q9GZT9, DEL76-177); assay: Activity of purified recombinant HPH 2 on HIF-1a peptide substrate; assay type: biochemical; conditions: additive added (CoCl2 in excess)
T1 construct: MBP (N); made in house; host or cells: E. coli BL21-CodonPlus-RIL

[2] = test system: prolyl-4-hydroxylase activity capable of modifying a proline-containing peptide derived from the ODD; conditions: cited from earlier work
[3] = target: human HIF-1a ODD peptide (Homo sapiens, UniProt Q16665, M561A/M568A); assay: [35S]-pVHL pull-down prolyl hydroxylase assay with biotinylated HIF-1a ODD peptide; assay type: biochemical; conditions: enzyme in vitro transcribed/translated in rabbit reticulocyte lysate; ascorbate, 2-oxoglutarate, FeSO4 present

T1 sequence (Q9GZT9 with tags, fused parts or gaps DEL76-177): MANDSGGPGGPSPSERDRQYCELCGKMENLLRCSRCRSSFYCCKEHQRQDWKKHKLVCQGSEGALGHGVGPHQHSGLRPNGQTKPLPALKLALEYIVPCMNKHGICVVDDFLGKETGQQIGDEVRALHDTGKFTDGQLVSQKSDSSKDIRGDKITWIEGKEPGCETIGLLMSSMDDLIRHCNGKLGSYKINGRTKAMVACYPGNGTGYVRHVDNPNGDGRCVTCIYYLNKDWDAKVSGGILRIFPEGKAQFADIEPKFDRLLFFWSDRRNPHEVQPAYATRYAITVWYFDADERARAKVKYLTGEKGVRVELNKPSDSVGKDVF

effect on activity of the HPH 2 enzyme [1]: greatly stimulated
Molecule: O=S(=O)([O-])[O-].[Fe+2] [FeSO4]

Molecule: CC(=O)N(O)CCCCCNC(=O)CCC(=O)N(O)CCCCCNC(=O)CCC(=O)N(O)CCCCCN [deferoxamine mesylate]
prolyl-4-hydroxylase activity in extracts ([2]; extracts prepared in the presence of hypoxia mimics): greatly diminished

Molecule: CoCl2
prolyl-4-hydroxylase activity in extracts [2]: greatly diminished

Molecule: HPH 3: human HPH 1 paralog, Genbank BC001723
prolyl hydroxylase activity (pVHL association with the biotinylated peptide) [3]: catalyze the hydroxylation
